Measurements reported in patent US20080160520A1, “Methods and Composition for Diagnosing and Treating Cancer” (priority 2006, published 2008).
Like-named read-outs stand apart in the source and are kept apart here. Where a SMILES comes first, the peptide text is derived from it. The star is where a group is joined. Cbz = O=C(OCc1ccccc1)*

How the values were obtained:
Format in all cases: cell-based, S. cerevisiae
[1] = test system: aneuploid yeast strains; details: for colony formation of aneuploids on medium containing the agent: compared with wild-type cells, FIG. 13B, E, I
Text: To determine whether the synthesis of proteins from the additional chromosomes and their presence in the cell represents an increased burden on the cell's protein production machinery, the ability of aneuploid strains to grow under conditions that interfere with transcription, protein synthesis and protein folding was examined.

[2] = test system: YAC-bearing strains; details: YACs with human or mouse DNA inserts; FIG. 5B
Procedure: Strains (from the top): A11311, A16850, A17392, A17393, A17394, A13628, A17396, A17397, A16851.
The phenotypes shared by aneuploids might result from the mere presence of additional DNA or from the RNAs and proteins synthesized from these chromosomes. Thus, the effects of seven yeast artificial chromosomes (YACs) containing human or mouse DNA inserts ranging from approximately 350 kb to 1.6 MB in size were tested (Table 3).
The other phenotypes observed in aneuploids were not shared by the YAC-bearing strains. […] Progression through other cell cycle stages was not affected either as judged by DNA content analysis (FIGS. 5, C and D).

[3] = test system: cdc28-4 and cdc23-1 mutants; assay: Sensitivity of slow-proliferating cdc28-4 and cdc23-1 mutants to protein synthesis inhibitors; details: mutants severely impaired in cell division even at 23° C.; FIGS. 4C and D

Q: How did the “colony formation of aneuploids on medium containing the agent” value (from here on “colony formation of aneuploids”) [1] turn out when `O=c1cn[nH]c(=O)[nH]1` [6-Azauracil] was run?
A: Its value is “formed colonies as well as wild-type cells”.

Q: For `CC(C)C[C@@H](C=O)NC(=O)[C@H](CC(C)C)NC(=O)[C@H](CC(C)C)NC(=O)OCc1ccccc1` [MG 132] (Cbz-Leu-Leu-Leu-aldehyde), which “proliferation of aneuploid strains (ability to form colonies on plates containing the drug)” value ([1]; disomes IV, XII, XIII, XIV and XVI, PDR5 deleted, concentrations that wild-type cells grow at, FIG. 4F) is on record?
A: Its value is “inhibited”.

Q: For `CC(=O)Nc1c2sscc-2n(C)c1=O` [Thiolutin], which proliferation of aneuploids ([1]; high concentration 20 μg/ml, all aneuploids except disomes I, X, XIV, FIG. 4B) is on record?
A: The proliferation of aneuploids was “inhibited”.

Q: And the proliferation of aneuploids ([1]; low concentrations 5 μg/ml to 15 μg/ml, FIG. 13H)?
A: The proliferation of aneuploids was “proliferation of only a subset of strains was impaired”.

Q: What about the “sensitivity of YAC-bearing strains” value [2] of the same molecule?
A: The value was “did not exhibit increased sensitivity”.

Q: Which “colony formation of aneuploids” value [1] does the source give for `O=C(O)C1CCN1` (stereo not drawn) [azetidine 2-carboxylic acid] here?
A: The value was “formed colonies as well as wild-type cells”.

Q: For `CCCCNC(=O)n1c(NC(=O)OC)nc2ccccc21` [benomyl], which “sensitivity of aneuploid strains” value ([1]; 10 and 20 μg/ml, FIG. 13F) is on record?
A: Its value is “About half of the aneuploid strains analyzed exhibited increased sensitivity”.

Q: For `C[C@@H]1C[C@@H]([C@H](O)CC2CC(=O)NC(=O)C2)C(=O)[C@@H](C)C1` [cycloheximide], which “proliferation of aneuploid strains” value ([1]; 0.05 μg/ml, FIG. 4C) is on record?
A: The value was “proliferation of most was impaired”.

Q: What about the “proliferation of all aneuploid strains” value ([1]; 0.1 μg/ml and 0.2 μg/ml, FIG. 4C) of the same molecule?
A: The value was “decreased proliferation”.

Q: And the “proliferation of all aneuploid strains” value ([1]; all aneuploid strains, FIG. 4C)?
A: Its value is “hampered”.

Q: And the “sensitivity of cdc28-4 and cdc23-1 mutants” value [3]?
A: Its value is “did not exhibit increased sensitivity”.

Q: What about the “sensitivity of YAC-bearing strains” value [2] of the same molecule?
A: The value was “did not exhibit increased sensitivity”.

Q: With `OO` [hydrogen peroxide] as the molecule, how does the “proliferation of aneuploids in the presence of the agent” value ([1]; 1 mM, FIG. 13D, G) read?
A: The value was “None of the aneuploids showed altered proliferation”.

Q: For `NC(=O)NO` [hydroxyurea], which “colony formation of aneuploids” value [1] is on record?
A: Its value is “formed colonies as well as wild-type cells”.

Q: `CC[C@H]1/C=C/C=C/C[C@@H](C)[C@H](O)[C@@](C)(O)C(=O)[C@@H](C)[C@H](O)[C@@H](C)C(=O)[C@@H](C)[C@H](O)[C@@H](C)/C=C/C(=O)O[C@@H]2[C@H](C)[C@H](CC1)O[C@]1(CC[C@H](C)[C@H](C[C@@H](C)O)O1)[C@H]2C` [oligomycin] was tested. Which “sensitivity of aneuploid strains” value ([1]; increasing concentrations, FIG. 13I) did it give?
A: The value was “did not exhibit increased sensitivity”.
